PMC10079954, “Rational design of phase separating peptides based on phase separating protein sequence of p53” (Scientific Reports, 2023)

Experiments:
[1] = tested on: p53 tetramer; assay: Recruitment (enrichment index) of p53 tetramer into designed peptide droplets; design: species or system human; settings: droplet interior regions, surface not included; no salt, pH 7.0
From the text: (§1) We prepared p53 tetramer, dimer, and monomer mutants, as described previously[8],[37],[50]. For the p53 tetramer, a thermostable and cysteine-modified human p53 mutant (C124A, C135V, C141V, W146Y, C182S, V203A, R209P, C229Y, H233Y, Y234F, N235K, Y236F, T253V, N268D, C275A, C277A, and K292C) was used[50]. The dimer and monomer mutants of p53 corresponded to L344A and L344P of the tetramer sequence, respectively[8],[37]. These p53 mutants were expressed with a glutathione S-transferase (GST) tag in E. coli and purified after cleavage of the GST tag, as described previously[50],[51]. The oligomeric state of p53 mutants was confirmed using a gel filtration column (Superdex 200; GE Healthcare). p53 mutants were labeled with Atto488 (ATTO-TEC) or Alexa488 (Thermo Fisher) using maleimide chemistry and then purified using a heparin column (GE Healthcare). We prepared Alexa488-labeled FUS-MBP as described previously[37],[39].
(§2) Recruitment evaluations were performed following the method described in our previous studies[37],[41]. Solutions containing 0.9–1.8 mM designed peptides, 0.1 µM Alexa488-labeled p53 mutants or Alexa488, 25 mM HEPES, 0.5 mM EDTA, and 1 mM DTT at pH 7.0 were used. The solutions were then incubated at 22 °C for five minutes. The aforementioned microscope was used with HILO illumination. To prevent photo-bleaching of the fluorescent samples, we used a laser power of 0.15 mW. The images were acquired at 22 °C. Using the ImageJ software, we calculated the EI values of the individual droplets as follows:2 EI=Idroplet/Isolution, where Idroplet and Isolution represent the average fluorescence intensities of the individual droplets and solutions near the droplets with background substitution, respectively.

[2] = Single-molecule fluorescence tracking (HILO) of labeled molecules in their droplets; type: physicochemical; settings: Alexa488-labeled peptide 10–100 pM in 0.9 mM non-labeled peptide droplets; 25 mM HEPES, 0.5 mM EDTA, 45 mM NaCl, 150 mg/mL dextran, pH 7.0; linear fit of MSD (4D slope)
Procedure: We quantitatively characterized the liquid droplet properties of the four designed peptides and compared them with those of p53. We measured the fusion of the designed peptide droplets in the solution used for p53 droplets (Supplementary Fig. S4). In the presence of 45 mM NaCl and 150 mg/mL dextran, the fusion of droplets for the four designed peptides was observed within 0.2 s, which was much faster than that for p53 (3.7 min)[8]. This gap in the fusion period implies different intrinsic dynamic properties. We measured the movement of Alexa488-labeled peptides within non-labeled peptide droplets using single-molecule fluorescence microscopy with a highly inclined and laminated optical sheet (HILO) illumination[37],[41] (Fig. 3A). […]
Single-molecule measurements were performed following the method described in our previous studies[37],[41]. An inverted fluorescence microscope (IX-73; Olympus) with a total internal reflection fluorescence unit (IX3RFAEVAW; Olympus) was used[52],[53]. […] The fluorescence collected via the objective lens was detected using an EM-CCD camera (iXon Ultra 888, Andor). […] Images were recorded at intervals of 15–154 ms after reducing the number of observable molecules in the droplets by photobleaching within one minute. […]

[3] = tested on: p53 monomer (L344P) mutant; assay: Recruitment (enrichment index) of p53 monomer into designed peptide droplets; design: species or system human; settings: 0.9–1.8 mM designed peptide, 0.1 µM Alexa488-labeled p53, 25 mM HEPES, 0.5 mM EDTA, 1 mM DTT, pH 7.0, 22 °C; ± standard error; SEM
From the text: as §1, §2

[4] = tested on: maltose binding protein-fused FUS (FUS-MBP); assay: Recruitment (enrichment index) of FUS-MBP into designed peptide droplets; settings: 1 mM DPp53N-GSGS-D7, 100 nM Alexa488-labeled protein, 1 mM DTT, pH 7.0
Procedure: as §2, with “Solutions containing 0.9–1.8 mM designed peptides, 0.1 µM Alexa488-labeled p53 mutants or Alexa488, 25 mM HEPES, 0.5 mM EDTA, and 1 mM DTT at pH 7.0 were used.” left out
Fig. S10 p53 monomer is localized inside droplets of DPp53N-GSGS-D7, whereas FUS-MBP is localized in its droplet surfaces. Fluorescence images of Alexa488-labeled p53 monomer mutant (L344P) and FUS-MBP in droplet solution of non-labeled DPp53N-GSGS-D7. The solution containing 103 mM HEPES and 1 mM DTT, 100 nM Alexa488 labeled proteins, and 1 mM DPp53N-GSGS-D7 at pH 7.0 was used.
Fig. S13 Design and experimental verification of artificial PS peptides from PS protein FUS. […] (B) DIC and fluorescence images of the solution containing 4 mM FUS designed peptide and 120 mM HEPES at pH 7.0. […] (C) Fluorescence images of Alexa488-labeled FUS-MBP in non-labeled FUS-designed-peptide droplet solution. […]

[5] = target: C-terminal peptide of p53; assay: Affinity of DPp53C1 to the C-terminal peptide of p53; type: binding

Sequence | Decrease of average EI of p53 tetramer relative to p53 monomer [1] [fold] | Average diffusion coefficient (D) in own droplets [2] [μm^2/s] | Enrichment index (EI) of p53 monomer (L344P) mutant in peptide droplets [3] | Average EI of FUS-MBP, fold smaller than that of p53 monomer [4] [fold] | Kd [5] [µM]
RRRVVQRRRRGSGSDDDDDDD [DPp53N-GSGS-D7] | 10.5 | 0.26 ± 0.01 | 22.3 ± 0.7 | 2.2 | 
DDDASQEDDD [DPp53C1] |  |  |  |  | 10
